Data on 33 compounds can be found in patent publication US11072617B2, “Bicyclic sulfones and sulfoxides and methods of use thereof” (Genentech, Inc., priority 2017, dated 2021).

SMILES strings stand for the structures. A value given as a limit tells only on which side of the number the result lay.

The target in the assay is human RIP1 kinase domain (2-375) (Homo sapiens (Human), UniProt Q13546). Briefly: RIP1 kinase inhibition biochemical assay (Transcreener ADP, fluorescence polarization). As to conditions: Ki app from tight-binding Morrison equation; 50 nM enzyme, 50 uM ATP, 2 hours incubation. As to the method:
RIP1 Kinase Inhibition Assays (Biochemical Assay)
The compounds of the present invention were tested for their capacity to inhibit RIP1K activity as described below.
The ability of the receptor interacting protein kinase (RIPK1) to catalyze the hydrolysis of adenosine-5′-triphosphate (ATP) is monitored using the Transcreener ADP (adenosine-5′-diphosphate) assay (BellBrook Labs). Purified human RIP1 kinase domain (2-375) (50 nM) derived from a baculovirus-infected insect cell expression system is incubated with test compounds for 2 hours in 50 mM Hepes buffer (pH 7.5) containing 30 mM MgCl2, 1 mM dithiothreitol, 50 uM ATP, 0.002% Brij-35, and 0.5% dimethyl sulfoxide (DMSO). Reactions are quenched by the addition of 1× Bell Brooks Stop buffer B (20 mM Hepes (ph7.5), 40 mM ethylenediaminetetraacetic acid and 0.02% Brij-35) containing an additional 12 mM EDTA and 55 ug/mL ADP2 antibody and 4 nM ADP-AlexaFluor® 633 tracer. The tracer bound to the antibody is displaced by the ADP generated during the RIP1K reaction, which causes a decrease in fluorescence polarization that is measured by laser excitation at 633 nm with a FP microplate reader M1000. Fractional activity was plotted against test article concentration. Using Genedata Screener software (Genedata; Basel, Switzerland), the data were fit to the tight-binding apparent inhibition constant (Ki^app) Morrison equation [Williams, J. W. and Morrison, J. F. (1979) The kinetics of reversible tight-binding inhibition. Methods Enzymol 63: 437-67]. The following equation was used to calculate fractional activity and Ki^app:
[formula] where [E]T and [I]T are the total concentrations of active enzyme and test article, respectively.
Exemplary compounds of the present invention are provided in Table 1 along with their physiochemical characterization and in vitro RIP1 kinase inhibitory activity data. “Method” in the first column of each table refers to the synthetic method(s) used to prepare each compound as shown in the Examples above. In certain examples, chiral column retention times (min) are provided for certain stereoisomers. Unless otherwise specified, the stereochemistry shown in each structure represents relative configuration of a single stereoisomer, and absolute configuration (i.e., “R” and/or “S”) is arbitrarily assigned. In some embodiments, where the Method is described to include the separation of stereoisomers, a single stereoisomer of a compound of Table 1 is provided.

Chain of human RIP1 kinase domain (2-375) (Q13546 2-375): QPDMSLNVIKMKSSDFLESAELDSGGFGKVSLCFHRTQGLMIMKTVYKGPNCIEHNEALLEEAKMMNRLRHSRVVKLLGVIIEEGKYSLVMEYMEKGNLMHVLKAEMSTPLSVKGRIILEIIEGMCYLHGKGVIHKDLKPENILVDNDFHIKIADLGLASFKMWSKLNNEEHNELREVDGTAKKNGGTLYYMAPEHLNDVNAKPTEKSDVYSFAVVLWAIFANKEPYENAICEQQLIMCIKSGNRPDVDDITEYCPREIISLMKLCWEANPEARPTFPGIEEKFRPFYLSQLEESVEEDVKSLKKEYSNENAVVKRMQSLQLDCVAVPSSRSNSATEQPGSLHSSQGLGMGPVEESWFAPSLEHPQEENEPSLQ

Regarding `[O-][S@@+](c1nc2n(n1)[C@H](c1ccccc1)CC2)C(F)F` [Example 12, (5S)-2-[(S)-difluoromethylsulfinyl]-5-phenyl-6,7-dihydro-5H-pyrrolo[1,2-b][1,2,4]triazole], the Ki turned out to be 48 nM. `O=S(=O)(c1nc2n(n1)[C@H](c1c(F)cccc1F)C[C@@H]2F)C1CC1(F)F` (stereo partly drawn) [Example 123, (5S,7S)-2-(2,2-difluorocyclopropyl)sulfonyl-5-(2,6-difluorophenyl)-7-fluoro-6,7-dihydro-5H-pyrrolo[1,2-b][1,2,4]triazole] registered a Ki below 5 nM. For `[O-][S+](c1nc2n(n1)[C@H](c1cc(F)cc(F)c1)CC2)C(F)F` (stereo in doubt) [Example 174, (5S)-2-[(R)-difluoromethylsulfinyl]-5-(3,5-difluorophenyl)-6,7-dihydro-5H-pyrrolo[1,2-b][1,2,4]triazole], the Ki worked out at 310 nM.

As to `[O-][S@@+](c1nc2n(n1)[C@H](c1ccccc1)C[C@@H]2F)C1CC1` [Example 28, (5S,7S)-2-[(R)-cyclopropylsulfinyl]-7-fluoro-5-phenyl-6,7-dihydro-5H-pyrrolo[1,2-b][1,2,4]triazole], the Ki was 89 nM. Compound `O=S(=O)(c1nc2n(n1)[C@@H](c1ccccc1Cl)CC2)C(F)F` [Example 15, (5R)-5-(2-chlorophenyl)-2-(difluoromethylsulfonyl)-6,7-dihydro-5H-pyrrolo[1,2-b][1,2,4]triazole] gave a Ki of 1600 nM.

The compound `[O-][S@+](CF)c1nc2n(n1)[C@H](c1cc(F)cc(F)c1)C[C@@H]2F` (single isomer, unassigned) [Example 85] yielded a Ki of 180 nM. Take `O=S(=O)(c1nc2n(n1)[C@H](c1ccccc1)C[C@@H]2F)[C@H]1C[C@@H](O)C1` (single isomer, unassigned) [Example 225]: the Ki is 300 nM. `O=S(=O)(c1nc2n(n1)[C@H](c1cc(Cl)ccc1F)C[C@@H]2F)C(F)F` [Example 66, (5S,7S)-5-(5-chloro-2-fluorophenyl)-2-((difluoromethyl)sulfonyl)-7-fluoro-6,7-dihydro-5H-pyrrolo[1,2-b][1,2,4]triazole] displayed a Ki of 69 nM.

As to `O=S(=O)(c1nc2n(n1)[C@H](c1ccccc1Cl)C[C@@H]2F)C(F)(F)F` (single isomer, unassigned) [Example 134], the Ki amounted to 3 nM.

Take `[O-][S+](c1nc2n(n1)[C@H](c1cc(F)cc(F)c1)CC2)C(F)F` (stereo in doubt) [Example 173, (5S)-2-[(S)-difluoromethylsulfinyl]-5-(3,5-difluorophenyl)-6,7-dihydro-5H-pyrrolo[1,2-b][1,2,4]triazole]: the Ki stood at 19 nM. Regarding `[O-][S@@+](CF)c1nc2n(n1)[C@H](c1ccccc1F)C[C@@H]2F` (single isomer, unassigned) [Example 74], the Ki was below 5 nM. `O=S(=O)(c1nc2n(n1)[C@H](c1ccccc1F)C[C@@H]2F)C(F)F` (single isomer, unassigned) [Example 53] yielded a Ki of 13 nM. As to `O=S(=O)(c1nc2n(n1)[C@H](c1ccccc1)C[C@@H]2F)[C@H]1C[C@@H]1F` (single isomer, unassigned) [Example 146], the Ki is 4 nM. The result for `O=S(=O)(c1nc2n(n1)[C@H](c1ccccc1)C[C@@H]2F)C1CC1` [Example 30, (5S,7S)-2-cyclopropylsulfonyl-7-fluoro-5-phenyl-6,7-dihydro-5H-pyrrolo[1,2-b][1,2,4]triazole] reads 4 nM; that for `[O-][S+](c1nc2n(n1)[C@H](c1ccccc1)C[C@@H]2F)C(F)(F)F` (stereo partly drawn) [Example 132, (5S,7S)-7-fluoro-5-phenyl-2-(trifluoromethylsulfinyl)-6,7-dihydro-5H-pyrrolo[1,2-b][1,2,4]triazole], 11 nM. Under `O=S(=O)(c1nc2n(n1)[C@H](c1ccccc1F)C[C@@H]2F)C(F)(F)F` (single isomer, unassigned) [Example 133] stands 4 nM; under `O=S(=O)(c1nc2n(n1)[C@H](c1cccc(F)c1)C[C@@H]2F)[C@H]1C[C@@H]1F` (single isomer, unassigned) [Example 141], below 5 nM. Take `O=S(=O)(c1nc2n(n1)[C@H](c1ccccc1Cl)C[C@@H]2F)C1CC1` (single isomer, unassigned) [Example 32]: the Ki was determined as 3 nM. Under `O=S(=O)(c1nc2n(n1)[C@H](c1cc(F)ccc1F)C[C@@H]2F)[C@@H]1CC1(F)F` (single isomer, unassigned) [Example 127] stands 6 nM; under `O=S(=O)(c1nc2n(n1)[C@H](c1c(F)ccc(F)c1F)C[C@@H]2F)C(F)F` (single isomer, unassigned) [Example 59], 7 nM. `N#CC1CC1S(=O)(=O)c1nc2n(n1)[C@H](c1ccccc1)C[C@@H]2F` (stereo in doubt) [Example 222, (1R,2R)-2-[[(5S,7S)-7-fluoro-5-phenyl-6,7-dihydro-5H-pyrrolo[1,2-b][1,2,4]triazol-2-yl]sulfonyl]cyclopropanecarbonitrile] displayed a Ki of 61 nM. Regarding `[2H][C@H]1C[C@@H](c2ccccc2)n2nc(S(=O)(=O)C3CC3)nc21` [Example 41, (5S,7S)-2-cyclopropylsulfonyl-7-deuterio-5-phenyl-6,7-dihydro-5H-pyrrolo[1,2-b][1,2,4]triazole], the Ki stood at 140 nM. In turn, `O=S(=O)(c1nc2n(n1)[C@H](c1ccc(F)cc1)C[C@@H]2F)C1CC1` (single isomer, unassigned) [Example 34] returned a Ki of 10 nM. The result for `O=S(=O)(c1nc2n(n1)[C@H](c1ccccc1)C[C@@H]2F)[C@H]1C[C@@H](CO)C1` (single isomer, unassigned) [Example 168] reads 530 nM; that for `[O-][S@@+](CF)c1nc2n(n1)[C@H](c1cccc(F)c1F)C[C@@H]2F` (single isomer, unassigned) [Example 76], below 5 nM; that for `O=S(=O)(c1nc2n(n1)[C@H](c1ccc(F)cc1)C[C@@H]2F)C(F)F` (single isomer, unassigned) [Example 56], 55 nM. In the case of `[O-][S@@+](CF)c1nc2n(n1)[C@H](c1c(F)cccc1F)C[C@@H]2F` (single isomer, unassigned) [Example 80], the Ki is below 5 nM.

Regarding `[O-][S@+](CF)c1nc2n(n1)[C@H](c1ccccc1)C[C@@H]2F` [Example 71], the Ki was 90 nM. The compound `[O-][S+](CC(F)(F)F)c1nc2n(n1)C(c1ccccc1)CC2` (stereo not drawn) [Example 177, 5-Phenyl-2-(2,2,2-trifluoroethylsulfinyl)-6,7-dihydro-5H-pyrrolo[1,2-b][1,2,4]triazole] came in with a Ki of 57 nM. As to `O=S(=O)(c1nc2n(n1)[C@H](c1c(F)cccc1F)C[C@@H]2F)C(F)(F)F` (single isomer, unassigned) [Example 139], the Ki was determined as 5 nM. The result for `O=S(=O)(c1nc2n(n1)CCC2c1ccccc1)C(F)F` (racemic) [Example 220, 2-(Difluoromethylsulfonyl)-7-phenyl-6,7-dihydro-5H-pyrrolo[1,2-b][1,2,4]triazole] reads 100 nM. For `CC(C)(C#N)S(=O)(=O)c1nc2n(n1)[C@H](c1ccccc1)C[C@@H]2F` (single isomer, unassigned) [Example 104], the Ki stood at 14 nM. The compound `[O-][S+](c1nc2n(n1)C(c1ccccc1)CC2)C(F)F` (stereo not drawn) [Example 1, 2-(difluoromethylsulfinyl)-5-phenyl-6,7-dihydro-5H-pyrrolo[1,2-b][1,2,4]triazole] gave a Ki of 58 nM.
